Laboratory results published in patent publication US9481654B2, “Compositions and methods for inhibition of the JAK pathway” (Rigel Pharmaceuticals, Inc., priority 2006, dated 2016).

Experiments:
Format in all cases: cell-based
[1] = tested on: IFNγ induced ICAM-1 (CD54) up-regulation in U937 human monocytic cells (JAK/Stat pathway); assay: U937 IFNγ ICAM1 FACS Assay; settings: Table III Example 6; 10 ng/mL IFNγ, 18-24 hours
Summary of the method: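 U937 cells (100,000 per well) were pre-incubated 30 min at 37 °C with serially 3-fold diluted compound, then stimulated with IFNγ for 18–24 h. Surface ICAM-1 was measured by flow cytometry as the geometric mean of ICAM-APC on gated live cells. EC50 values were calculated from dose curves, with % live cells also recorded.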

[2] = tested on: IL-4 stimulated CD23 upregulation in human Ramos B cells (JAK-1/JAK-3, Stat-6); assay: Assay for Ramos B-Cell Line Stimulated with IL-4 (CD23 upregulation, FACS); settings: Table III Example 3
Summary of the method: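 Log-phase Ramos B cells (5×10^4 per point, RPMI with 5% serum) pre-incubated with compound or DMSO 1 h at 37° C, then stimulated with IL-4 at 50 units/mL final for 20-24 h. CD23 upregulation measured by staining and flow cytometry.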

[3] = tested on: primary human T-cells (IL-2 induced proliferation, JAK-1/JAK-3, Stat-5); assay: Primary Human T-Cell Proliferation Assay Stimulated with IL-2 (CellTiter-Glo); settings: Table III Example 4
Summary of the method: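 Pre-activated peripheral-blood T-cells (TCR/CD28 stimulated, IL-2-maintained) were IL-2-depleted, then plated in Yssel's medium with 80 U/mL IL-2 in the cell suspension and compound in duplicate. Proliferation ran 72 h at 37 °C; viable cells quantified by CellTiter-Glo ATP luminescence, with IL-2-omitted wells as unstimulated control.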

CNS(=O)(=O)c1cccc(Nc2ncc(C)c(Nc3cccc(CNS(=O)(=O)C4CC4)c3)n2)c1 [Compound I-162, N4-(3-cyclopropylsulfonylaminomethyl)phenyl-5-methyl-N2-(3-methylaminosulfonyl)phenyl-2,4-pyrimidinediamine] showed an IC50 [1] of 0.155 µM, an IC50 [2] of 0.0579 µM and an IC50 [3] of 0.0463 µM.

For C#CCNS(=O)(=O)c1ccc(Nc2ncc(C)c(Nc3ccc(CNS(=O)(=O)C4CC4)cc3)n2)cc1 [Compound I-164, N4-(4-cyclopropylsulfonylaminomethyl)phenyl-5-methyl-N2-(4-propargylaminosulfonyl)phenyl-2,4-pyrimidinediamine], the IC50 [1] was 0.16 µM, the IC50 [2] was 0.0613 µM and the IC50 [3] was 0.0328 µM.

Work on C#CCNS(=O)(=O)c1cccc(Nc2ncc(C)c(Nc3ccc(CNS(=O)(=O)C4CC4)cc3)n2)c1 [Compound I-165, N4-(4-cyclopropylsulfonylaminomethyl)phenyl-5-methyl-N2-(3-propargylaminosulfonyl)phenyl-2,4-pyrimidinediamine] yielded an IC50 [1] of 0.15 µM, an IC50 [2] of 0.0348 µM and an IC50 [3] of 0.0199 µM.

Work on Cc1cnc(Nc2cccc(S(=O)(=O)NC(C)C)c2)nc1Nc1ccc(CNS(=O)(=O)C2CC2)cc1 [Compound I-173, N4-(4-cyclopropylsulfonylaminomethyl)phenyl-N2-(3-isopropylaminosulfonyl)phenyl-5-methyl-2,4-pyrimidinediamine] yielded an IC50 [1] of 0.109 µM, an IC50 [2] of 0.0348 µM and an IC50 [3] of 0.0424 µM.

CCNS(=O)(=O)c1ccc(Nc2ncc(C)c(Nc3ccc(CNS(=O)(=O)C4CC4)cc3)n2)cc1 [Compound I-175, N4-(4-cyclopropylsulfonylaminomethyl)phenyl-N2-(4-ethylaminosulfonyl)phenyl-5-methyl-2,4-pyrimidinediamine] gave an IC50 [1] of 0.0723 µM, an IC50 [2] of 0.0461 µM and an IC50 [3] of 0.102 µM.

With CCNS(=O)(=O)c1cccc(Nc2ncc(C)c(Nc3ccc(CNS(=O)(=O)C4CC4)cc3)n2)c1 [Compound I-176, N4-(4-cyclopropylsulfonylaminomethyl)phenyl-N2-(3-ethylaminosulfonyl)phenyl-5-methyl-2,4-pyrimidinediamine] the IC50 [1] was 0.0484 µM, the IC50 [2] was 0.00798 µM and the IC50 [3] was 0.0645 µM.

In the case of CCCNS(=O)(=O)c1cccc(Nc2ncc(C)c(Nc3ccc(CNS(=O)(=O)C4CC4)cc3)n2)c1 [Compound I-178, N4-(4-cyclopropylsulfonylaminomethyl)phenyl-5-methyl-N2-(3-propylaminosulfonyl)phenyl-2,4-pyrimidinediamine], the IC50 [1] is reported as 0.0577 µM, the IC50 [2] is reported as 0.023 µM and the IC50 [3] is reported as 0.122 µM.

For Cc1cnc(Nc2cccc(S(=O)(=O)NCC3CC3)c2)nc1Nc1ccc(CNS(=O)(=O)C2CC2)cc1 [Compound I-180, N2-(3-cyclopropylmethylaminosulfonyl)phenyl-N4-(4-cyclopropylsulfonylaminomethyl)phenyl-5-methyl-2,4-pyrimidinediamine], the IC50 [1] was 0.0622 µM, the IC50 [2] was 0.0257 µM and the IC50 [3] was 0.148 µM.

COCCCNS(=O)(=O)c1ccc(Nc2ncc(C)c(Nc3ccc(CNS(=O)(=O)C4CC4)cc3)n2)cc1 [Compound I-181, N4-(4-cyclopropylsulfonylaminomethyl)phenyl-N2-[4-(3-methoxypropyl)aminosulfonyl]phenyl-5-methyl-2,4-pyrimidinediamine] was tested, and the IC50 [1] was 0.243 µM, the IC50 [2] was 0.0731 µM and the IC50 [3] was 0.121 µM.

With COCCCNS(=O)(=O)c1cccc(Nc2ncc(C)c(Nc3ccc(CNS(=O)(=O)C4CC4)cc3)n2)c1 [Compound I-182, N4-(4-cyclopropylsulfonylaminomethyl)phenyl-N2-[3-(3-methoxypropyl)aminosulfonyl]phenyl-5-methyl-2,4-pyrimidinediamine] the IC50 [1] was 0.103 µM, the IC50 [2] was 0.0257 µM and the IC50 [3] was 0.0551 µM.

Molecule COCCNS(=O)(=O)c1cccc(Nc2ncc(C)c(Nc3ccc(CNS(=O)(=O)C4CC4)cc3)n2)c1 [Compound I-184, N4-(4-cyclopropylsulfonylaminomethyl)phenyl-N2-[3-(2-methoxyethyl)aminosulfonyl]phenyl-5-methyl-2,4-pyrimidinediamine] has an IC50 [1] of 0.0978 µM, an IC50 [2] of 0.0141 µM and an IC50 [3] of 0.0517 µM.

Molecule CNS(=O)(=O)c1cc(Nc2ncc(C)c(Nc3ccc(CNS(=O)(=O)C4CC4)cc3)n2)ccc1C [Compound I-185, N4-(4-cyclopropylsulfonylaminomethyl)phenyl-5-methyl-N2-(4-methyl-3-methylaminosulfonyl)phenyl-2,4-pyrimidinediamine] has an IC50 [1] of 0.0853 µM, an IC50 [2] of 0.0225 µM and an IC50 [3] of 0.0411 µM.

CCNS(=O)(=O)c1cc(Nc2ncc(C)c(Nc3ccc(CNS(=O)(=O)C4CC4)cc3)n2)ccc1C [Compound I-186, N4-(4-cyclopropylsulfonylaminomethyl)phenyl-N2-(3-ethylaminosulfonyl-4-methyl)phenyl-5-methyl-2,4-pyrimidinediamine] gave an IC50 [1] of 0.073 µM, an IC50 [2] of 0.0195 µM and an IC50 [3] of 0.04 µM.

For CCCNS(=O)(=O)c1cc(Nc2ncc(C)c(Nc3ccc(CNS(=O)(=O)C4CC4)cc3)n2)ccc1C [Compound I-187, N4-(4-cyclopropylsulfonylaminomethyl)phenyl-5-methyl-N2-(4-methyl-3-propylaminosulfonyl)phenyl-2,4-pyrimidinediamine], the IC50 [1] was 0.174 µM, the IC50 [2] was 0.0724 µM and the IC50 [3] was 0.101 µM.

In the case of C#CCNS(=O)(=O)c1cc(Nc2ncc(C)c(Nc3ccc(CNS(=O)(=O)C4CC4)cc3)n2)ccc1C [Compound I-188, N4-(4-cyclopropylsulfonylaminomethyl)phenyl-5-methyl-N2-(4-methyl-3-propargylaminosulfonyl)phenyl-2,4-pyrimidinediamine], the IC50 [1] is reported as 0.193 µM, the IC50 [2] is reported as 0.0436 µM and the IC50 [3] is reported as 0.573 µM.

In the case of Cc1ccc(Nc2ncc(C)c(Nc3ccc(CNS(=O)(=O)C4CC4)cc3)n2)cc1S(=O)(=O)NC(C)C [Compound I-189, N4-(4-cyclopropylsulfonylaminomethyl)phenyl-N2-(3-isopropylaminosulfonyl-4-methyl)phenyl-5-methyl-2,4-pyrimidinediamine], the IC50 [1] is reported as 0.153 µM, the IC50 [2] is reported as 0.0352 µM and the IC50 [3] is reported as 0.0344 µM.

For COCCNS(=O)(=O)c1cc(Nc2ncc(C)c(Nc3ccc(CNS(=O)(=O)C4CC4)cc3)n2)ccc1C [Compound I-190, N4-(4-cyclopropylsulfonylaminomethyl)phenyl-N2-[3-(2-methoxyethyl)aminosulfonyl-4-methyl]phenyl-5-methyl-2,4-pyrimidinediamine], the IC50 [1] was 0.187 µM, the IC50 [2] was 0.0726 µM and the IC50 [3] was 0.101 µM.

COCCCNS(=O)(=O)c1cc(Nc2ncc(C)c(Nc3ccc(CNS(=O)(=O)C4CC4)cc3)n2)ccc1C [Compound I-191, N4-(4-cyclopropylsulfonylaminomethyl)phenyl-N2-[3-(3-methoxypropyl)aminosulfonyl-4-methyl]phenyl-5-methyl-2,4-pyrimidinediamine] was tested, and the IC50 [1] was 0.247 µM, the IC50 [2] was 0.0512 µM and the IC50 [3] was 0.0799 µM.

For Cc1ccc(Nc2ncc(C)c(Nc3ccc(CNS(=O)(=O)C4CC4)cc3)n2)cc1S(=O)(=O)NCC1CC1 [Compound I-192, N2-(3-cyclopropylmethylaminosulfonyl-4-methyl)phenyl-N4-(4-cyclopropylsulfonylaminomethyl)phenyl-5-methyl-2,4-pyrimidinediamine], the IC50 [1] was 0.26 µM, the IC50 [2] was 0.0547 µM and the IC50 [3] was 0.0433 µM.

Cc1ccc(Nc2ncc(C)c(Nc3ccc(CNS(=O)(=O)C4CC4)cc3)n2)cc1S(=O)(=O)NCc1ccccc1 [Compound I-195, N2-(3-benzylaminosulfonyl-4-methyl)phenyl-N4-(4-cyclopropylsulfonylaminomethyl)phenyl-5-methyl-2,4-pyrimidinediamine] was tested, and the IC50 [1] was 0.23 µM, the IC50 [2] was 0.0664 µM and the IC50 [3] was 0.104 µM.

Cc1ccc(Nc2ncc(C)c(Nc3ccc(CNS(=O)(=O)C4CC4)cc3)n2)cc1S(=O)(=O)Nc1ccccc1 [Compound I-202, N4-(4-cyclopropylsulfonylaminomethyl)phenyl-5-methyl-N2-(4-methyl-3-phenylaminosulfonyl)phenyl-2,4-pyrimidinediamine] showed an IC50 [1] of 0.482 µM, an IC50 [2] of 0.0865 µM and an IC50 [3] of 0.184 µM.

CNS(=O)(=O)c1ccc(Nc2ncc(C)c(Nc3cccc(CNS(=O)(=O)C4CC4)c3)n2)cc1 [Compound I-207, N4-(3-cyclopropylsulfonylaminomethyl)phenyl-5-methyl-N2-(4-methylaminosulfonyl)phenyl-2,4-pyrimidinediamine] showed an IC50 [1] of 0.312 µM, an IC50 [2] of 0.0865 µM and an IC50 [3] of 0.158 µM.

Work on CCNS(=O)(=O)c1cccc(Nc2ncc(C)c(Nc3cccc(CNS(=O)(=O)C4CC4)c3)n2)c1 [Compound I-208, N4-(3-cyclopropylsulfonylaminomethyl)phenyl-N2-(3-ethylaminosulfonyl)phenyl-5-methyl-2,4-pyrimidinediamine] yielded an IC50 [1] of 0.257 µM, an IC50 [2] of 0.0743 µM and an IC50 [3] of 0.0457 µM.

COCCNS(=O)(=O)c1cc(Nc2ncc(C)c(Nc3cccc(CNS(=O)(=O)C4CC4)c3)n2)ccc1C [Compound I-210, N4-(3-cyclopropylsulfonylaminomethyl)phenyl-N2-[3-(2-methoxyethyl)aminosulfonyl-4-methyl]phenyl-5-methyl-2,4-pyrimidinediamine] showed an IC50 [1] of 0.175 µM, an IC50 [2] of 0.128 µM and an IC50 [3] of 0.143 µM.

In the case of Cc1cnc(Nc2ccc(S(N)(=O)=O)cc2)nc1Nc1ccc2c(c1)CCN(S(=O)(=O)C1CC1)C2 [II-1, N2-(4-aminosulfonyl)phenyl-N4-[(N-cyclopropylsulfonyl)-1,2,3,4-tetrahydroisoquinolin-6-yl]-5-methyl-2,4-pyrimidinediamine], the IC50 [1] is reported as 0.229 µM, the IC50 [2] is reported as 0.0423 µM and the IC50 [3] is reported as 0.108 µM.
